Experimental findings from PubChem BioAssay AID1996 are described below.

A word on the kinetic solubility: it is solubility judged after dilution from a stock solution rather than from solid.

Structures are written as SMILES. Converted amounts (≈) assume the structure as drawn.

The conditions of the series: buffer; pH 7.4; 200.0 µM.
Consider `C[n+]1ccc(C(=O)NCc2ccccc2)cc1.[I-]`, for which the solubility (kinetic) worked out at 0.0393 mg/mL.

In the case of `O=C(O)C1CCCCC1C(=O)NC1C2CC3CC(C2)CC1C3` (configuration not stated), the solubility (kinetic) was 0.0424 mg/mL (≈ 139 µM).

For the molecule `CCCc1cc(C(=O)Nc2ccc(F)c(Cl)c2)no1`, the solubility (kinetic) turned out to be 0.0015 mg/mL (≈ 5.31 µM).

`CC(C)N=C(Nc1cccnc1)c1ccccc1` yielded a solubility (kinetic) of more than 0.0359 mg/mL.

`O=C(Nc1cc(S(=O)(=O)N2CCOCC2)ccc1Cl)c1cc([N+](=O)[O-])ccc1Cl`: the solubility (kinetic) was 0.0028 mg/mL (≈ 6.08 µM).

On to `Cc1nc(-c2ccc(C(=O)N3CCCC3)cc2)cs1`, for which the solubility (kinetic) is more than 0.0409 mg/mL.

In turn, `COc1cccc(NC(=O)CN(C)CC(=O)Nc2ccc3c(c2)OCO3)c1` yielded a kinetic solubility of more than 0.0557 mg/mL.

`CC12CCC(C/C1=N\OC(=O)c1c(F)cccc1F)C2(C)C` (configuration not stated) displayed a kinetic solubility of 0.0215 mg/mL (≈ 70 µM).

`CC(=O)c1ccc(S(=O)(=O)N2CCN(C)CC2)cc1` displayed a solubility (kinetic) of more than 0.0424 mg/mL.

`Cc1cc(C(=O)N2CCN(c3ccc([N+](=O)[O-])cc3)CC2)co1` returned a solubility (kinetic) of more than 0.0473 mg/mL.

With `COc1ccc(Nc2c3c(nc4ccc(C)cc24)CCC3)cc1.Cl`, the solubility (kinetic) amounted to 0.0366 mg/mL.

For `CSc1ccccc1NC(=O)COC(=O)Cc1ccsc1`, the solubility (kinetic) was more than 0.0482 mg/mL.

`CSc1cc(CS(=O)(=O)c2ccccc2)nc(-c2ccccc2)n1` showed a solubility (kinetic) of less than 0.0004 mg/mL.

`Cc1cc(O)c(CN2CC=C(c3ccccc3)CC2)cc1C(C)C` showed a solubility (kinetic) of 0.0012 mg/mL (≈ 3.73 µM).

As to `CCOc1ccc2c(c1)c(C(C)=O)c(C)n2Cc1ccco1`, the solubility (kinetic) is less than 0.0006 mg/mL.

`Cn1ccnc1Sc1ccc(C=O)cc1[N+](=O)[O-]` displayed a kinetic solubility of more than 0.0395 mg/mL.

Molecule `Cn1c(=O)n(C)c2cc([N+](=O)[O-])c(N3CCNCC3)cc21` displayed a solubility (kinetic) of more than 0.0437 mg/mL.

In turn, `CC(=O)Nc1ccc(C(=O)NC2CCSc3ccccc32)cc1` (configuration not stated) yielded a solubility (kinetic) of 0.0166 mg/mL (≈ 50.9 µM).

Molecule `O=C(O)COc1ccc(Br)cc1/C=N\Nc1ccccn1` showed a kinetic solubility of more than 0.0525 mg/mL.

`O=[N+]([O-])c1cccc(/C=N/n2cnnc2)c1` gave a kinetic solubility of more than 0.0326 mg/mL.

In the case of `O=C(Nc1ccncc1)Nc1ccncc1`, the kinetic solubility is more than 0.0321 mg/mL.

Consider `COc1cc(SC)ccc1C(=O)OCC(=O)N1CCCC1`, for which the kinetic solubility is more than 0.0464 mg/mL.

The molecule `O=C(COc1ncnc2ccccc12)NC1CCCCC1` registered a kinetic solubility of more than 0.0428 mg/mL.

`COCc1cc(C)[nH]c(=O)c1C(=O)NC12CC3CC(CC(C3)C1)C2`: the kinetic solubility stood at 0.0096 mg/mL (≈ 29.1 µM).

Molecule `COc1ccc2c(c1)CC/C2=N\OC(=O)c1ccccc1C` came in with a solubility (kinetic) of less than 0.0006 mg/mL.

As to `O=C(O)c1ccc2c(=O)[nH]c(CCl)nc2c1`, the kinetic solubility was more than 0.0358 mg/mL.

Take `COC(=O)c1sc(NC(=O)COc2c(C)cccc2C)nc1C`: the solubility (kinetic) came out at 0.0004 mg/mL (≈ 1.2 µM).

On to `O=C(O)CCC(=O)N(Cc1ccccc1)Cc1ccccc1`, for which the kinetic solubility is more than 0.0446 mg/mL.

Take `CC(=O)c1cccc(NC(=O)CSc2nc(C3CC3)nc3ccccc23)c1`: the solubility (kinetic) amounted to 0.0009 mg/mL (≈ 2.38 µM).

Take `O=C(Cn1ccc(=O)[nH]c1=O)NCCO`: the solubility (kinetic) was more than 0.032 mg/mL.

The molecule `CCN(CC(=O)Nc1c(F)cccc1F)C(=O)c1ccc(C#N)cc1` had a kinetic solubility of more than 0.0515 mg/mL.

For `O=C(Nc1ccccc1N1CCOCC1)c1ccc2c(c1)OCO2`, the kinetic solubility was determined as 0.0047 mg/mL (≈ 14.4 µM).

The molecule `NS(=O)(=O)c1ccc(CCNCC(=O)NC2CC2)cc1` registered a kinetic solubility of 0.0263 mg/mL (≈ 88.4 µM).

The molecule `O=C(NCCc1cnc[nH]1)c1cccs1` showed a kinetic solubility of more than 0.0332 mg/mL.

In turn, `COc1ccc(NCCC(O)c2ccc(Cl)cc2)cc1` (configuration not stated) returned a solubility (kinetic) of 0.0405 mg/mL (≈ 139 µM).

Turning to `Fc1ccccc1NC(=S)N1CCOCC1`, the solubility (kinetic) is more than 0.036 mg/mL.

As to `O/N=C/c1ccnc(SCc2ccccc2)n1`, the solubility (kinetic) stood at 0.0314 mg/mL (≈ 128 µM).

`CC1CC(C)CN(S(=O)(=O)c2ccc(C(C)(C)C)cc2)C1` (configuration not stated) had a solubility (kinetic) of less than 0.0007 mg/mL.

As for `N#Cc1ccc(C(=O)Nc2cccc(S(=O)(=O)NC3=NCCC3)c2)cc1`, the solubility (kinetic) worked out at 0.0237 mg/mL (≈ 64.3 µM).

Turning to `CC(C)NC(=O)c1ccc(COc2cc(Cl)ccc2Cl)o1`, the solubility (kinetic) was 0.0028 mg/mL (≈ 8.53 µM).

In turn, `COC(=O)Cn1c2nc3ccccc3nc2c2cccc(C)c21` displayed a kinetic solubility of 0.0002 mg/mL (≈ 0.655 µM).

Molecule `COc1ccc(C(=O)CNc2cccc(F)c2)cc1` displayed a solubility (kinetic) of 0.0043 mg/mL (≈ 16.6 µM).

As for `O=C(CN1C(=O)S/C(=C\c2ccccn2)C1=O)Nc1ccc(F)cc1`, the solubility (kinetic) turned out to be 0.0009 mg/mL (≈ 2.52 µM).

`Cc1nn(C)c(C)c1NC(=O)c1ccc(Br)o1` registered a solubility (kinetic) of more than 0.0447 mg/mL.

Consider `COC(=O)c1ccc(N=CC2=C(O)CC(c3ccccc3)CC2=O)cc1` (configuration not stated), for which the kinetic solubility is 0.0021 mg/mL (≈ 6.01 µM).

In the case of `Cn1c(N)c(S(=O)(=O)N2CCCC2)c(=O)n(C)c1=O`, the kinetic solubility is more than 0.0432 mg/mL.

Turning to `Cn1ncc(C(=O)N=S(C)(=O)c2ccccc2)c1[N+](=O)[O-]` (configuration not stated), the kinetic solubility was more than 0.0462 mg/mL.

`CCCCOc1ccc(Cc2cnc(N)nc2N)cc1` gave a solubility (kinetic) of 0.0363 mg/mL (≈ 133 µM).

Take `CC(N=Cc1c(O)c2ccccc2oc1=O)C(=O)O` (configuration not stated): the solubility (kinetic) was more than 0.0392 mg/mL.

Turning to `CCCC[N+]12CCC(CC1)C(Cc1ccccc1)C2.[Br-]` (configuration not stated), the solubility (kinetic) was more than 0.0507 mg/mL.

Take `CCSc1nc2sc3c(c2c(=O)n1-c1ccccc1)CCN(C(C)C)C3`: the kinetic solubility was found to be 0.037 mg/mL (≈ 96 µM).

`Cc1c(NS(=O)(=O)c2cccc(C(=O)N3CCCC3)c2)c(=O)n(-c2ccccc2)n1C` displayed a kinetic solubility of more than 0.0661 mg/mL.
